Literature values, collected in patent US20110190376A1, “RNAi-RELATED INHIBITION OF TNFa SIGNALING PATHWAY FOR TREATMENT OF MACULAR EDEMA” (ALCON RESEARCH, LTD., priority 2007, published 2011).

How the values were obtained:
[1] = tested on: severe diabetic macular edema; details: eyes that had severe diabetic macular edema
[2] = tested on: refractory chronic cystoid macular edema (CME)
[3] = tested on: macular edema; details: patients also suffering from posterior uveitis

infliximab
eyes with anatomic and functional improvement [1]: four of six
eyes with complete regression of refractory chronic cystoid macular edema [2]: 8 of 14
resolution of macular edema [3]: caused macular edema to resolve in two patients
